# Assay results: paper PMC7217877, “N-AS-triggered SPMs are direct regulators of microglia in a model of Alzheimer’s disease” (Nature Communications, 2020)
# Several values for one entry are separate records, joined by “and”; a condition that tells them apart may be missing. Equal entries are not always repeated.
# Legend:
# COX2 N181A = biological target: T1, COX2 N181A (Homo sapiens, UniProt P35354, N181A); experiment: filter binding assay of [14C] N-AS to COX2; details: 0.2 uM, replicates
# T1 construct: His (N); made in house
# T1 sequence (P35354 18-604 N181A): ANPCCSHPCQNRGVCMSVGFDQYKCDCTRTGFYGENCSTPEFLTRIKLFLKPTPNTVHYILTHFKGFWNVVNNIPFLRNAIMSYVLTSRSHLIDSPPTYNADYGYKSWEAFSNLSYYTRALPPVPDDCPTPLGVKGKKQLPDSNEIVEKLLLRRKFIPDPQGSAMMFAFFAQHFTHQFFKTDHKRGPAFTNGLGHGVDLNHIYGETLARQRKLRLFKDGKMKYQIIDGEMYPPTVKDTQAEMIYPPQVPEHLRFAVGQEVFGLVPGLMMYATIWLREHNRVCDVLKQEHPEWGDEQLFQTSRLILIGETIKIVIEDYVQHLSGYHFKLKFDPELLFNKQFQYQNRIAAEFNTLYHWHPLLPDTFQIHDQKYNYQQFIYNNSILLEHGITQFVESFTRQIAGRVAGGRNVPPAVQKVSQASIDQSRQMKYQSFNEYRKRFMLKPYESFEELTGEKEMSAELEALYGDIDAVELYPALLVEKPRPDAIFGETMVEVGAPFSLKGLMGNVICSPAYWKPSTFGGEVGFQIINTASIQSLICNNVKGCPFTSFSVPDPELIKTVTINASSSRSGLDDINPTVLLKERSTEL
# CYP 2D6 = biological target: T2, CYP 2D6 (Homo sapiens, UniProt P10635); experiment: cytochrome P450 inhibition in human liver microsomes; format: in vitro ADME
# T2 construct: from tissue; host or cells: human liver microsomes
# Experimental: (§1) A 10 μl aliquot of this solution was then diluted using 90 μl of 100 mM potassium phosphate buffer (pH 7.4). Probe substrate cocktail solutions for seven major cytochrome P450 isozymes (phenacetin (100 μM for 1A2), bupropion (50 μM for 2B6), diclofenac (20 μM for 2C9), mephenytoin (100 μM for 2C19), dextromethorphan (5 μM for 2D6), chlorzoxazone (50 μM for 2E1), and midazolam (5 μM for 3A4)) were prepared with phosphate buffer. […] Reactions were stopped at 15 min by the addition of 200 μl cold acetonitrile (containing propranolol as internal standard at 20 ng ml^−1) and centrifuged at 17,968×g for 10 min. A 2 μl aliquot of the supernatant was injected into the LC-MS/MS system. The ratio of peak area of test compound /internal standard was used to determine the % metabolic activity of probe substrate according to the concentrations of N-AS added.
# CYP 2C19 = biological target: T3, CYP 2C19 (Homo sapiens, UniProt P33261); experiment: as above; format: in vitro ADME
# T3 construct: from tissue; host or cells: human liver microsomes
# Experimental: as §1
# CYP 2B6 = biological target: T4, CYP 2B6 (Homo sapiens, UniProt P20813); experiment: as above; format: in vitro ADME
# T4 construct: from tissue; host or cells: human liver microsomes
# Experimental: as §1
# CYP 1A2 = biological target: T5, CYP 1A2 (Homo sapiens, UniProt P05177); experiment: as above; format: in vitro ADME
# T5 construct: from tissue; host or cells: human liver microsomes
# Experimental: as §1
# CYP 2E1 = biological target: T6, CYP 2E1 (Homo sapiens, UniProt P05181); experiment: as above; format: in vitro ADME
# T6 construct: from tissue; host or cells: human liver microsomes
# Experimental: as §1
# CYP 3A4 = biological target: T7, CYP 3A4 (Homo sapiens, UniProt P08684); experiment: as above; format: in vitro ADME
# T7 construct: from tissue; host or cells: human liver microsomes
# Experimental: as §1
# CYP 2C9 = biological target: T8, CYP 2C9 (Homo sapiens, UniProt P11712); experiment: as above; format: in vitro ADME
# T8 construct: from tissue; host or cells: human liver microsomes
# Experimental: as §1
# T6 sequence (P05181 whole entry): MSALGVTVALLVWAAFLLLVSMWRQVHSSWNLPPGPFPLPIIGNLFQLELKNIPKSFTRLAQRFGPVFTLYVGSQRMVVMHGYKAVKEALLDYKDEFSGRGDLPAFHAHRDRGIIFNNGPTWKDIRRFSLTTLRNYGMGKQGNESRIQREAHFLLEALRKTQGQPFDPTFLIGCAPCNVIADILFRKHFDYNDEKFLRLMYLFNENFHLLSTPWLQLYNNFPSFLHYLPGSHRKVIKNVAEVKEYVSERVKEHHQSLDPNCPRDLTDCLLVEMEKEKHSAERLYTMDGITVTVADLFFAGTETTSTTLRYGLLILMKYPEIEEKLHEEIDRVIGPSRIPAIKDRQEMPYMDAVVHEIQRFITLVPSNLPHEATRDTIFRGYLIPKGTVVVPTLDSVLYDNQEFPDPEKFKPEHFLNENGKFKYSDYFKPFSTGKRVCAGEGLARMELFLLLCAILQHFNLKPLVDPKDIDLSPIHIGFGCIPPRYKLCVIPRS
# T8 sequence (P11712 whole entry): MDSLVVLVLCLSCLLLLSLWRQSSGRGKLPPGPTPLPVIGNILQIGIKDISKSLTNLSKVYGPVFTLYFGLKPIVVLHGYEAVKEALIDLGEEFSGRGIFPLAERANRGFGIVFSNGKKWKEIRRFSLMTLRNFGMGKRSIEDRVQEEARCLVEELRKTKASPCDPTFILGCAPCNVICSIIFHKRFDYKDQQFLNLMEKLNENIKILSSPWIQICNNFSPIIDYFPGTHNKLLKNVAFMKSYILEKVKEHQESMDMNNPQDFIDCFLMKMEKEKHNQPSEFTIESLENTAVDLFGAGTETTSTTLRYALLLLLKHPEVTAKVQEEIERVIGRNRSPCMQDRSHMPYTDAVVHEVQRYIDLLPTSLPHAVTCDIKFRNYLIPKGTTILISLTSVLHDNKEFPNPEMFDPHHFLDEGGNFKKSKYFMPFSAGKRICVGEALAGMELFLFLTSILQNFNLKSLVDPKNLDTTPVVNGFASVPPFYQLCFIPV
# T2 sequence (P10635 whole entry): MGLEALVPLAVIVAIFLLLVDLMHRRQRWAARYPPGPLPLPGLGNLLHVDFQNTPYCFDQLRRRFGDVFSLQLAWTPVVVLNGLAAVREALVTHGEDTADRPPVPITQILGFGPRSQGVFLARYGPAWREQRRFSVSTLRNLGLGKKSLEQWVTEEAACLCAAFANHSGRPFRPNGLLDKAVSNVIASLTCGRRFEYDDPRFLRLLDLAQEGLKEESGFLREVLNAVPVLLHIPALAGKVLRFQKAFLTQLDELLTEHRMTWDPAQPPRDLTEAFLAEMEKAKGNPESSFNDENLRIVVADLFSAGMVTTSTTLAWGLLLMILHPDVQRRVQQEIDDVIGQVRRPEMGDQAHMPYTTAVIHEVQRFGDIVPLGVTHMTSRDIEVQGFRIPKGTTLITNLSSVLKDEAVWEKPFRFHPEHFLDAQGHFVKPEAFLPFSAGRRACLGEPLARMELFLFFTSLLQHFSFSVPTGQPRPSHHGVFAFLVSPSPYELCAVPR
# T3 sequence (P33261 whole entry): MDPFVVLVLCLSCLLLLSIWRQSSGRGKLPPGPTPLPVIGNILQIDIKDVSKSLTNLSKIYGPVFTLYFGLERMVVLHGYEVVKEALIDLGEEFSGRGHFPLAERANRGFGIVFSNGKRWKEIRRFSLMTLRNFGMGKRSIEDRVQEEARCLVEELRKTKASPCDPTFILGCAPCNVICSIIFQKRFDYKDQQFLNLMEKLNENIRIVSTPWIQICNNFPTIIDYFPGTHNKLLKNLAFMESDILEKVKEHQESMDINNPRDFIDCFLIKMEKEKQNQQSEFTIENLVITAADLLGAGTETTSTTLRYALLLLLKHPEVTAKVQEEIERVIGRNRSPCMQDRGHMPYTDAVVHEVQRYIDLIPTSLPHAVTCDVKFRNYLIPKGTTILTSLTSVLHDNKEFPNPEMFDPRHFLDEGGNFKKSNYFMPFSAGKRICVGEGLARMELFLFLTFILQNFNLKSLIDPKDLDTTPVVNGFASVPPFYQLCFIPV
# T7 sequence (P08684 whole entry): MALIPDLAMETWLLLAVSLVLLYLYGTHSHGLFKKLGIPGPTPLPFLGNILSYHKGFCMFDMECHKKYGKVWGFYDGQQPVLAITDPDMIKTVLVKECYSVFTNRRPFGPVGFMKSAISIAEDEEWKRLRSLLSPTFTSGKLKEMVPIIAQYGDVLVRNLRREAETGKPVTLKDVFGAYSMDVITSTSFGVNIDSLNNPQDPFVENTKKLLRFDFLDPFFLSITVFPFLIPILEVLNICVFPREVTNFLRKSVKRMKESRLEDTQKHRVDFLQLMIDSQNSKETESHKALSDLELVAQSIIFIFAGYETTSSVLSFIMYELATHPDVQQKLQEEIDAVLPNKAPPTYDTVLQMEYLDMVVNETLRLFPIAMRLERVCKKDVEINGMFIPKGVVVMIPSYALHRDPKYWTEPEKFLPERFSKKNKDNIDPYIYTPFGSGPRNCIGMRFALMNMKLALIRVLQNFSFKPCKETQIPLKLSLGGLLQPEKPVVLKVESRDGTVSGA
# T4 sequence (P20813 whole entry): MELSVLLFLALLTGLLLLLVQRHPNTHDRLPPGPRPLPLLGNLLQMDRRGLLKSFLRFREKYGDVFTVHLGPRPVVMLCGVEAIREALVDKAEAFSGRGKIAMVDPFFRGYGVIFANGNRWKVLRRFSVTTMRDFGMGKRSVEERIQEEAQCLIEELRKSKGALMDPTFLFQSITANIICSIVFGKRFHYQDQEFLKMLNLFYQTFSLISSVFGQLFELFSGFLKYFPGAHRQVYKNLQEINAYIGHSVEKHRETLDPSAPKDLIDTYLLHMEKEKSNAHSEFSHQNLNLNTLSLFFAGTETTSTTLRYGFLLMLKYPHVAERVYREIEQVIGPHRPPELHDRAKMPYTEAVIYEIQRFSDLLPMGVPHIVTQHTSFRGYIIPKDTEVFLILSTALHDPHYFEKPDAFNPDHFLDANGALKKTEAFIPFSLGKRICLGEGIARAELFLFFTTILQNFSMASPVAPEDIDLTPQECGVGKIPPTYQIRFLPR
# T5 sequence (P05177 whole entry): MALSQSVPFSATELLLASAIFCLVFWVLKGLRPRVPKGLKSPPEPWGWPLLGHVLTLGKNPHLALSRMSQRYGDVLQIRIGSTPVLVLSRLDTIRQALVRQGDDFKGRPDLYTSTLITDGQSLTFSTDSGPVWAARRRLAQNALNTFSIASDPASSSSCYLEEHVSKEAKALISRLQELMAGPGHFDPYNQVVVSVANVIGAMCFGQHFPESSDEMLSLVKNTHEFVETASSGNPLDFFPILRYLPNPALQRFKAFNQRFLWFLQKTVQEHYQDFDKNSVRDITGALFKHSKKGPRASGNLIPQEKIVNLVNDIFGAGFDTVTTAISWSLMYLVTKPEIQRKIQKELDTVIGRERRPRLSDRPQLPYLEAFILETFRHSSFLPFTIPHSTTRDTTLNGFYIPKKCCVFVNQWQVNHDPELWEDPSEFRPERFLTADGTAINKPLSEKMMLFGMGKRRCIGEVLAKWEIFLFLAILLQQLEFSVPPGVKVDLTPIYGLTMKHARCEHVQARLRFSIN
structure (smiles),measurement,setting,value
"CCCCCCCCCCCCC/C=C/[C@@H](O)[C@H](CO)NC(C)=O [N-AS, N-((2S,3R,E)-1,3-Dihydroxyoctadec-4-en-2-yl)acetamide]",binding velocity (Vbinding),COX2 N181A,0.489 nM/min and 0.461 nM/min and 0.240 nM/min
same,IC50,CYP 2D6,> 10 µM
same,"activity at 15 min, 25 µM","CYP 2D6; human, liver microsomes, pH 7.4, probe dextromethorphan, N-AS 25 µM, read-out: % of control at 25 µM",104%
same,IC50,CYP 2C19,> 10 µM
same,"activity at 15 min, 25 µM","CYP 2C19; human, liver microsomes, pH 7.4, probe mephenytoin, N-AS 25 µM, read-out: % of control at 25 µM",79.6%
same,IC50,CYP 2B6,> 10 µM
same,"activity at 15 min, 25 µM","CYP 2B6; human, liver microsomes, pH 7.4, probe bupropion, N-AS 25 µM, read-out: % of control at 25 µM",92.7%
same,IC50,CYP 1A2,> 10 µM
same,"activity at 15 min, 25 µM","CYP 1A2; human, liver microsomes, pH 7.4, probe phenacetin, N-AS 25 µM, read-out: % of control at 25 µM",94.6%
same,IC50,CYP 2E1,> 10 µM
same,"activity at 15 min, 25 µM","CYP 2E1; human, liver microsomes, pH 7.4, probe chlorzoxazone, N-AS 25 µM, read-out: % of control at 25 µM",84%
same,IC50,CYP 3A4,> 10 µM
same,"activity at 15 min, 25 µM","CYP 3A4; human, liver microsomes, pH 7.4, probe midazolam, N-AS 25 µM, read-out: % of control at 25 µM",114%
same,IC50,CYP 2C9,> 10 µM
same,"activity at 15 min, 25 µM","CYP 2C9; human, liver microsomes, pH 7.4, probe diclofenac, N-AS 25 µM, read-out: % of control at 25 µM",95.5%
